According to patent US10905775B2, “Particulate constructs for release of active agents” (CELATOR PHARMACEUTICALS, INC., priority 2004, dated 2021):

Tests used:
[1] = Visual check / description of nanoparticle samples for crystals, aggregates, stability; assay type: physicochemical; settings: control: unconjugated paclitaxel 8 mg + VitES 10 mg + mPEG5-PCL7 in THF mixed against water
Method: (§1) A 300 mM sucrose solution is prepared, loaded into a 100 ml gas tight syringe, and fixed on a second syringe pump. […] At the mixer outlet, two samples are collected. The first sample is collected in a scintillation vial and analyzed for particle size by dynamic light scattering (DLS), and the second sample is collected in low temperature freezer vials, and freeze-dried. The freeze-drying cycle is the following: −40° C. overnight, −10° C. for a day, 4° C. for a day, and then room temperature for one day. […] The samples are checked visually for crystals/aggregates formation. […] A freeze-dried sample is dissolved in methanol to dissociate the nanoparticles, and the solution is tested for the presence of THF using CGC.

[2] = Nanoparticle size by dynamic light scattering (DLS); assay type: physicochemical; settings: control: unconjugated paclitaxel + VitES + mPEG5-PCL7
Method: as §1, with “CGC. Particle size may be determined by DLS. […] The sample collected in a scintillation vial from the mixer effluent is inserted into the DLS sample cell containing decalin scintillation fluid (maintained at 25° C. using a temperature bath), and left to equilibrate to the cell temperature. The run duration is 60 seconds, replicated three times. The particle size expressed as the hydrodynamic diameter is obtained using an ALV 5000 correlator and a second order cumulant fit.” for “CGC.”

time after mixing at which crystals were visible [1]: about 20 minutes
particles detected by Dynamic Light Scattering [2]: no particles were detected
SMILES: CC(=O)O[C@H]1C(=O)[C@@]2(C)[C@H]([C@H](OC(=O)c3ccccc3)[C@]3(O)C[C@H](OC(=O)[C@H](O)[C@@H](NC(=O)c4ccccc4)c4ccccc4)C(C)=C1C3(C)C)[C@]1(OC(C)=O)CO[C@@H]1C[C@@H]2O [paclitaxel]
